Results as given in the NIST ThermoML archive (doi:10.1021/je100100n).
Numbers after ± are expanded uncertainties.

Columns and labels:
[1] = 101.3 kPa, Liquid
[2] = xn = mol fraction of the nth substance listed; settings: 101 kPa, Liquid

CC(C)CO [2-methyl-1-propanol]
[1]
Settings	mass density [kg/m3]
288.15 K	805.6 ± 0.46
298.15 K	797.916 ± 0.47
313.15 K	786.069 ± 0.49
328.15 K	773.692 ± 0.51

CCCCO [butan-1-ol]
[1]
Settings	mass density [kg/m3]
288.15 K	813.77 ± 0.45
298.15 K	806.137 ± 0.46
313.15 K	794.488 ± 0.48
328.15 K	782.477 ± 0.49

CCOC(=O)CC(=O)OCC [diethyl 1,3-propanedioate]
[1]
Settings	mass density [kg/m3]
288.15 K	1060.33 ± 0.27
298.15 K	1049.6 ± 0.26
313.15 K	1033.5 ± 0.23
328.15 K	1017.34 ± 0.2

CCOC(=O)CC(=O)OCC [diethyl 1,3-propanedioate] + CCCO
mass density [kg/m3], [2]
Settings	288.15 K	298.15 K	313.15 K	328.15 K
x1 = 0.1001	854.156 ± 0.4	845.431 ± 0.41	832.128 ± 0.43	818.439 ± 0.45
x1 = 0.2	891.858 ± 0.34	882.638 ± 0.35	868.577 ± 0.37	854.173 ± 0.39
x1 = 0.2999	923.874 ± 0.29	914.254 ± 0.31	899.629 ± 0.33	884.69 ± 0.35
x1 = 0.3501	938.229 ± 0.27	928.438 ± 0.28	913.567 ± 0.3	898.431 ± 0.33
x1 = 0.4001	951.433 ± 0.25	941.51 ± 0.26	926.45 ± 0.29	911.123 ± 0.31
x1 = 0.4499	963.765 ± 0.23	953.71 ± 0.25	938.475 ± 0.27	922.986 ± 0.29
x1 = 0.4999	975.313 ± 0.21	965.148 ± 0.23	949.737 ± 0.25	934.134 ± 0.27
x1 = 0.5446	985.016 ± 0.2	974.758 ± 0.21	959.257 ± 0.24	943.524 ± 0.26
x1 = 0.5997	996.235 ± 0.18	985.888 ± 0.2	970.245 ± 0.22	954.437 ± 0.24
x1 = 0.7003	1014.96 ± 0.2	1004.46 ± 0.18	988.638 ± 0.19	972.67 ± 0.22
x1 = 0.7998	1031.53 ± 0.23	1020.94 ± 0.21	1004.99 ± 0.18	988.923 ± 0.19
x1 = 0.8997	1046.55 ± 0.25	1035.87 ± 0.23	1019.84 ± 0.21	1003.72 ± 0.18
x1 = 1	1060.33 ± 0.27	1049.6 ± 0.26	1033.5 ± 0.23	1017.34 ± 0.2
